Measured values: the supplement of paper PMC10307832

Assays:
Experiment in all cases: relative viability (nuclei count vs DMSO), 5 days (fraction); higher = more cells survive
[1] = compound: C[As](C)SC[C@H](NC(=O)CC[C@H](N)C(=O)O)C(=O)NCC(=O)O [Darinaparsin] + CCNC(=O)c1noc(-c2cc(C(C)C)c(O)cc2O)c1-c1ccc(CN2CCOCC2)cc1 [Luminespib] (partner 0.01 µM)
Method in brief: (§1)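 Lung cancer cell lines, seeded in 1536-well plates, were treated the following day by pin tool with a single drug or with five library-drug doses (not always all listed) in √10 steps on top of a fixed anchor-drug dose. Cells were fixed and nuclei stained in one step after 5 days, and nuclei were counted. Relative viability is the nuclei count for treated wells divided by that for vehicle wells, reported as medians of duplicate plates.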

QS11 + Crizotinib = compound: C1CC2=C(C1)C=C(C=C2)OC3=NC(=C4C(=N3)N(C=N4)CC5=CC=C(C=C5)C6=CC=CC=C6)N[C@@H](CC7=CC=CC=C7)CO [QS11] + C[C@@H](Oc1cc(-c2cnn(C3CCNCC3)c2)cnc1N)c1c(Cl)ccc(F)c1Cl [Crizotinib] (partner 1 µM)
Method in brief: as §1

AZ628 + Decitabine = compound: CC1=C(C=C(C=C1)NC(=O)C2=CC(=CC=C2)C(C)(C)C#N)NC3=CC4=C(C=C3)N=CN(C4=O)C [AZ628] + Nc1ncn([C@H]2C[C@H](O)[C@@H](CO)O2)c(=O)n1 [Decitabine] (partner 2 µM)
Method in brief: as §1

QS11 + Bortezomib = compound: C1CC2=C(C1)C=C(C=C2)OC3=NC(=C4C(=N3)N(C=N4)CC5=CC=C(C=C5)C6=CC=CC=C6)N[C@@H](CC7=CC=CC=C7)CO [QS11] + CC(C)C[C@H](NC(=O)[C@H](Cc1ccccc1)NC(=O)c1cnccn1)B(O)O [Bortezomib] (partner 0.002 µM)
Method in brief: as §1

LK-2 gave a relative viability ([1]; first compound 0.08 µM) of 0.175, a relative viability ([1]; first compound 2.53 µM) of 0.173 and a relative viability ([1]; first compound 8 µM) of 0.174. For the same cell line, the relative viability (QS11 + Crizotinib; first compound 0.08 µM) was 0.25, the relative viability (QS11 + Crizotinib; first compound 0.253 µM) was 0.221 and the relative viability (QS11 + Crizotinib; first compound 0.8 µM) was 0.215. For the same cell line, the relative viability (QS11 + Crizotinib; first compound 2.53 µM) was 0.266, the relative viability (QS11 + Crizotinib; first compound 8 µM) was 0.214 and the relative viability (AZ628 + Decitabine; first compound 0.08 µM) was 0.308. It also gave a relative viability (AZ628 + Decitabine; first compound 0.253 µM) of 0.271, a relative viability (AZ628 + Decitabine; first compound 0.8 µM) of 0.326 and a relative viability (AZ628 + Decitabine; first compound 2.53 µM) of 0.338. It also gave a relative viability (AZ628 + Decitabine; first compound 8 µM) of 0.184.
HCC-78 showed a relative viability (QS11 + Bortezomib; first compound 0.08 µM) of 0.478, a relative viability (QS11 + Bortezomib; first compound 0.253 µM) of 0.484 and a relative viability (QS11 + Bortezomib; first compound 0.8 µM) of 0.457. The relative viability (QS11 + Bortezomib; first compound 2.53 µM) was 0.486, the relative viability (QS11 + Bortezomib; first compound 8 µM) was 0.544 and the relative viability (QS11 + Crizotinib; first compound 0.08 µM) was 0.326. It also gave a relative viability (QS11 + Crizotinib; first compound 0.253 µM) of 0.342, a relative viability (QS11 + Crizotinib; first compound 0.8 µM) of 0.289 and a relative viability (QS11 + Crizotinib; first compound 2.53 µM) of 0.325. For the same cell line, the relative viability (QS11 + Crizotinib; first compound 8 µM) was 0.331, the relative viability (AZ628 + Decitabine; first compound 0.08 µM) was 0.734 and the relative viability (AZ628 + Decitabine; first compound 0.253 µM) was 0.629. It also gave a relative viability (AZ628 + Decitabine; first compound 0.8 µM) of 0.771, a relative viability (AZ628 + Decitabine; first compound 2.53 µM) of 0.787 and a relative viability (AZ628 + Decitabine; first compound 8 µM) of 0.848.
For CAL-12T, the relative viability (QS11 + Bortezomib; first compound 0.08 µM) was 0.893, the relative viability (QS11 + Bortezomib; first compound 0.253 µM) was 0.865 and the relative viability (QS11 + Bortezomib; first compound 0.8 µM) was 0.809. For the same cell line, the relative viability (QS11 + Bortezomib; first compound 2.53 µM) was 1.07, the relative viability (QS11 + Bortezomib; first compound 8 µM) was 1.03 and the relative viability ([1]; first compound 0.08 µM) was 0.182. It also gave a relative viability ([1]; first compound 0.8 µM) of 0.429, a relative viability ([1]; first compound 2.53 µM) of 0.429 and a relative viability ([1]; first compound 8 µM) of 0.761. The relative viability (QS11 + Crizotinib; first compound 0.08 µM) was 0.579, the relative viability (QS11 + Crizotinib; first compound 0.253 µM) was 0.733 and the relative viability (QS11 + Crizotinib; first compound 0.8 µM) was 0.626. It also gave a relative viability (QS11 + Crizotinib; first compound 2.53 µM) of 0.394 and a relative viability (QS11 + Crizotinib; first compound 8 µM) of 0.512.
With Calu-6 the relative viability (QS11 + Bortezomib; first compound 0.08 µM) was 1.12, the relative viability (QS11 + Bortezomib; first compound 0.253 µM) was 1.07 and the relative viability (QS11 + Bortezomib; first compound 0.8 µM) was 0.953. The relative viability (QS11 + Bortezomib; first compound 2.53 µM) was 1.06, the relative viability (QS11 + Bortezomib; first compound 8 µM) was 0.817 and the relative viability (QS11 + Crizotinib; first compound 0.08 µM) was 0.907. The relative viability (QS11 + Crizotinib; first compound 0.253 µM) was 0.914, the relative viability (QS11 + Crizotinib; first compound 0.8 µM) was 0.728 and the relative viability (QS11 + Crizotinib; first compound 2.53 µM) was 0.952. For the same cell line, the relative viability (QS11 + Crizotinib; first compound 8 µM) was 0.828.
Work on SK-MES-1 yielded a relative viability ([1]; first compound 0.08 µM) of 1.19, a relative viability ([1]; first compound 0.8 µM) of 0.691 and a relative viability ([1]; first compound 2.53 µM) of 0.88. For the same cell line, the relative viability ([1]; first compound 8 µM) was 0.864, the relative viability (QS11 + Crizotinib; first compound 0.08 µM) was 1.12 and the relative viability (QS11 + Crizotinib; first compound 0.253 µM) was 0.98. The relative viability (QS11 + Crizotinib; first compound 0.8 µM) was 0.993, the relative viability (QS11 + Crizotinib; first compound 2.53 µM) was 0.977 and the relative viability (QS11 + Crizotinib; first compound 8 µM) was 0.929. For the same cell line, the relative viability (AZ628 + Decitabine; first compound 0.08 µM) was 0.448, the relative viability (AZ628 + Decitabine; first compound 0.253 µM) was 0.379 and the relative viability (AZ628 + Decitabine; first compound 0.8 µM) was 0.434. The relative viability (AZ628 + Decitabine; first compound 2.53 µM) was 0.43 and the relative viability (AZ628 + Decitabine; first compound 8 µM) was 0.338.
SW 900 was tested, and the relative viability ([1]; first compound 0.08 µM) was 0.169, the relative viability ([1]; first compound 0.8 µM) was 0.169 and the relative viability ([1]; first compound 2.53 µM) was 0.17. It also gave a relative viability ([1]; first compound 8 µM) of 0.166, a relative viability (AZ628 + Decitabine; first compound 0.08 µM) of 0.442 and a relative viability (AZ628 + Decitabine; first compound 0.253 µM) of 0.445. It also gave a relative viability (AZ628 + Decitabine; first compound 0.8 µM) of 0.509, a relative viability (AZ628 + Decitabine; first compound 2.53 µM) of 0.417 and a relative viability (AZ628 + Decitabine; first compound 8 µM) of 0.441.
NCI-H1299 was tested, and the relative viability (QS11 + Bortezomib; first compound 0.08 µM) was 1.03, the relative viability (QS11 + Bortezomib; first compound 0.253 µM) was 1.06 and the relative viability (QS11 + Bortezomib; first compound 0.8 µM) was 0.915. It also gave a relative viability (QS11 + Bortezomib; first compound 2.53 µM) of 0.969, a relative viability (QS11 + Bortezomib; first compound 8 µM) of 0.841 and a relative viability (QS11 + Crizotinib; first compound 0.08 µM) of 0.998. For the same cell line, the relative viability (QS11 + Crizotinib; first compound 0.253 µM) was 0.947, the relative viability (QS11 + Crizotinib; first compound 0.8 µM) was 0.948 and the relative viability (QS11 + Crizotinib; first compound 2.53 µM) was 0.892. It also gave a relative viability (QS11 + Crizotinib; first compound 8 µM) of 0.699.
Work on NCI-H522 yielded a relative viability ([1]; first compound 0.08 µM) of 1.1, a relative viability ([1]; first compound 0.8 µM) of 1.22 and a relative viability ([1]; first compound 2.53 µM) of 1.28. It also gave a relative viability ([1]; first compound 8 µM) of 1.15, a relative viability (AZ628 + Decitabine; first compound 0.08 µM) of 0.62 and a relative viability (AZ628 + Decitabine; first compound 0.253 µM) of 0.66. It also gave a relative viability (AZ628 + Decitabine; first compound 0.8 µM) of 0.686, a relative viability (AZ628 + Decitabine; first compound 2.53 µM) of 0.78 and a relative viability (AZ628 + Decitabine; first compound 8 µM) of 0.522.
For NCI-H1648, the relative viability (AZ628 + Decitabine; first compound 0.08 µM) was 0.72, the relative viability (AZ628 + Decitabine; first compound 0.253 µM) was 0.563 and the relative viability (AZ628 + Decitabine; first compound 0.8 µM) was 0.453. The relative viability (AZ628 + Decitabine; first compound 2.53 µM) was 0.453 and the relative viability (AZ628 + Decitabine; first compound 8 µM) was 0.489.
NCI-H1395 gave a relative viability ([1]; first compound 0.08 µM) of 0.681, a relative viability ([1]; first compound 0.8 µM) of 0.708 and a relative viability ([1]; first compound 2.53 µM) of 0.553. For the same cell line, the relative viability ([1]; first compound 8 µM) was 0.593, the relative viability (AZ628 + Decitabine; first compound 0.08 µM) was 0.678 and the relative viability (AZ628 + Decitabine; first compound 0.253 µM) was 0.698. The relative viability (AZ628 + Decitabine; first compound 0.8 µM) was 0.667, the relative viability (AZ628 + Decitabine; first compound 2.53 µM) was 0.647 and the relative viability (AZ628 + Decitabine; first compound 8 µM) was 0.788.
IA-LM showed a relative viability (QS11 + Bortezomib; first compound 0.08 µM) of 0.978, a relative viability (QS11 + Bortezomib; first compound 0.253 µM) of 0.856 and a relative viability (QS11 + Bortezomib; first compound 0.8 µM) of 0.677. For the same cell line, the relative viability (QS11 + Bortezomib; first compound 2.53 µM) was 0.665, the relative viability (QS11 + Bortezomib; first compound 8 µM) was 0.328 and the relative viability (QS11 + Crizotinib; first compound 0.08 µM) was 0.697. For the same cell line, the relative viability (QS11 + Crizotinib; first compound 0.253 µM) was 0.94, the relative viability (QS11 + Crizotinib; first compound 0.8 µM) was 0.675 and the relative viability (QS11 + Crizotinib; first compound 2.53 µM) was 0.693. It also gave a relative viability (QS11 + Crizotinib; first compound 8 µM) of 0.712.
With HCC-366 the relative viability (QS11 + Bortezomib; first compound 0.08 µM) was 1.28, the relative viability (QS11 + Bortezomib; first compound 0.253 µM) was 0.688 and the relative viability (QS11 + Bortezomib; first compound 2.53 µM) was 0.808. It also gave a relative viability (QS11 + Bortezomib; first compound 8 µM) of 0.318, a relative viability (QS11 + Crizotinib; first compound 0.08 µM) of 0.565 and a relative viability (QS11 + Crizotinib; first compound 0.253 µM) of 0.542. For the same cell line, the relative viability (QS11 + Crizotinib; first compound 2.53 µM) was 0.292, the relative viability (QS11 + Crizotinib; first compound 8 µM) was 0.324 and the relative viability (AZ628 + Decitabine; first compound 0.08 µM) was 0.345. For the same cell line, the relative viability (AZ628 + Decitabine; first compound 0.253 µM) was 0.313, the relative viability (AZ628 + Decitabine; first compound 0.8 µM) was 0.269 and the relative viability (AZ628 + Decitabine; first compound 2.53 µM) was 0.292. The relative viability (AZ628 + Decitabine; first compound 8 µM) was 0.182.
